Here are results for 13 molecules from patent publication US20240376056A1, “PHENYL ACETAMIDE BASED IL-17A MODULATORS AND USES THEREOF” (DiCE Alpha, Inc., priority 2021, published 2024).

pIC50: −log10 of the molar value.

This experiment deals with T1, IL-17A/A (Homo sapiens, UniProt Q16552).
T1 construct: purchased Genscript Z03228
T1 sequence (Q16552 24-155): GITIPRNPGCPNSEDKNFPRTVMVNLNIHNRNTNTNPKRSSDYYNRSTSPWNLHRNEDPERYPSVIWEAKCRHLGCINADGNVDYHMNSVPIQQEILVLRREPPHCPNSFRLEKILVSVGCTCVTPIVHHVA
The experiment can be described thus: HEK-Blue IL-17A/A inhibition assay (SEAP reporter). It is filed as cell-based. The settings on record: HEK-Blue cells (HEK 293 expressing IL-17RA, IL-17RC, Act1); IL-17A/A stimulation; 20 hours; SEAP read at A630; 4-parameter fit. How it is done: The HEK-Blue #NC108637 […]. Cells were grown and prepared for assays according to the manufacturer's instructions. This cell line consists of HEK 293 cells that were designed to expressed IL-17R^A, IL-17RC, and the ActI adapter molecule, the combination of which. when stimulated by IL-17A/A activates a NFtcB promoter and drives expression of a recombinant Secreted Alkaline Phosphatase (SEAP) geneprotein. Media from the cells is then added to a development reagent (Quanti-Blue Substrate, Fisher #NC971 1613), and read at A630.
Compounds were titrated in DMSO. with a top final compound concentration of 10 uM, 1 uM, or 0.3 uM, and added to the cells immediately before adding IL-17A/A (Genscript #Z03228). The cells, compound, and IL-17A/A were then incubated for 20 hours before media was removed for SEAP analysis. The resulting inhibition curve was then analyzed using Graphpad Prism 7.0, and IC50 values were determined using a 4-parameter nonlinear fit. DMSO was added to a universal final concentration of 0.1% to optimze background.

Turning to `CC(C)n1nccc1C(=O)N[C@H](C(=O)Nc1ccc([C@H](C)C(=O)NC2CC2C(F)F)cc1F)C(C1CC1)C1CC1` (stereo partly drawn) [Compound 25, N-((2S)-1.1-dicyclopropyl-3-((4-((2S)-1-((2-(difluoromethyl)cyclopropyl)amino)-1-oxopropan-2-yl)-2-fluorophenyl)amino)-3-oxopropan-2-yl)-1-isopropyl-1H-pyrazole-5-carboxamide], the pIC50 was 6.00 to 7.00.

As for `[2H]C([2H])([2H])N(CC(F)(F)F)C(=O)[C@@H](C)c1ccc(NC(=O)[C@@H](NC(=O)c2ccnn2C(C)C)C(C2CC2)C2CC2)c(F)c1` [Compound 23, N-((S)-1,1-dicyclopropyl-3-((2-fluoro-4-((S)-1-((methyl-d3)(2,2,2-trifluoroethyl)amino)-1-oxopropan-2-yl)phenyl)amino)-3-oxopropan-2-yl)-1-isopropyl-1H-pyrazole-5-carboxamide], the negative-log IC50 (pIC50) is 6.00 to 7.00.

As to `CCc1nocc1C(=O)N[C@H](C(=O)Nc1ccc([C@H](C)C(=O)NCC(F)(F)F)cc1F)C(C1CC1)C1CC1` [Compound 84, N-((S)-1,1-dicyclopropyl-3-((2-fluoro-4-((S)-1-oxo-1-((2,2,2-trifluoroethyl)amino)propan-2-yl)phenyl)amino)-3-oxopropan-2-yl)-3-ethylisoxazole-4-carboxamide], the pIC50 is more than 7.00.

With `CC(C(=O)NCC(F)(F)F)c1cc(F)c(NC(=O)[C@@H](NC(=O)c2ccnn2C(C)C)C(C2CC2)C2CC2)cc1C(N)=O` (single isomer, unassigned) [Compound 116], the pIC50 is less than 6.00.

For `CC(C)n1nccc1C(=O)N[C@H](C(=O)Nc1ccc([C@H](C)C(=O)N2CCCCC2C(F)(F)F)cc1F)C(C1CC1)C1CC1` (single isomer, unassigned) [Compound 20], the pIC50 is 6.00 to 7.00.

For the molecule `Cc1cc(NC(=O)[C@@H](NC(=O)c2ccnn2C(C)C)C(C2CC2)C2CC2)c(F)cc1C(C)C(=O)N(C)CC(F)(F)F` (stereo partly shown) [Compound 208], the pIC50 was more than 7.00.

With `CC(C(=O)NCC(F)(F)F)c1cc(F)c(NC(=O)[C@@H](NC(=O)c2ccnn2C(C)C)C(C2CC2)C2CC2)cc1N1CCCC1=O` (stereo partly shown) [Compound 187], the pIC50 was 6.00 to 7.00.

In the case of `C[C@H](C(=O)N(C)CC(F)(F)F)c1ccc(NC(=O)[C@@H](Nc2nccn3nccc23)C(C2CC2)C2CC2)c(F)c1` [Compound 106, (S)-3,3-dicyclopropyl-N-(2-fluoro-4-((S)-1-(methyl(2,2,2-trifluoroethyl)amino)-1-oxopropan-2-yl)phenyl)-2-(pyrazolo[1,5-a]pyrazin-4-ylamino)propenamide], the pIC50 was less than 6.00.

For the molecule `CC(C(=O)N1CCC(C(N)=O)C1C(F)(F)F)c1cc(F)c(NC(=O)[C@@H](NC(=O)c2ccnn2C(C)C)C(C2CC2)C2CC2)cc1C(F)(F)F` (stereo partly shown) [Compound 250], the pIC50 was more than 7.00.

As for `CC(C(=O)N(CC(N)=O)CC(F)(F)F)c1ccc(NC(=O)[C@@H](NC(=O)c2ccnn2C(C)C)C(C2CC2)C2CC2)c(F)c1` (single isomer, unassigned) [Compound 138], the pIC50 was less than 6.00.

Turning to `CC(C)n1nccc1C(=O)N[C@H](C(=O)Nc1ccc([C@H](C)C(=O)NC(CO)C(F)(F)F)cc1F)C(C1CC1)C1CC1` (single isomer, unassigned) [Compound 28], the negative-log IC50 (pIC50) is 6.00 to 7.00.

Turning to `CC(C)n1nccc1C(=O)N[C@H](C(=O)Nc1ccc([C@H](C)C(=O)NCC(F)(F)CO)cc1F)C(C1CC1)C1CC1` [Compound 65, N-((S)-1,1-dicyclopropyl-3-((4-((S)-1-((2,2-difluoro-3-hydroxypropyl)amino)-1-oxopropan-2-yl)-2-fluorophenyl)amino)-3-oxopropan-2-yl)-1-isopropyl-1H-pyrazole-5-carboxamide], the pIC50 is less than 6.00.

For `CCC(C1CCC1)[C@H](NC(=O)c1ccnn1CC)C(=O)Nc1ccc([C@H](C)C(=O)NCC(F)(F)F)cc1F` (single isomer, unassigned) [Compound 86], the pIC50 was 6.00 to 7.00.
